Patent EP2881391A1, “Spiroindoline carbocycle derivatives and pharmaceutical compositions thereof” (Bayer Pharma Aktiengesellschaft, priority 2013, dated 2015)

target: T1, human GnRH receptor (Homo sapiens, UniProt P30968); experiment: IP-One HTRF assay (inhibition of GnRH-R activation by buserelin); type: cell-based; settings: IP-One HTRF assay with buserelin (at EC80) stimulation; CHO cells stably expressing human GnRH receptor; tested 20 µM to 1 nM; read-out: Potency IC50
T1 construct: line established by Prof; Thomas Gudermann; host or cells: CHO cells
T1 sequence (P30968 1-328): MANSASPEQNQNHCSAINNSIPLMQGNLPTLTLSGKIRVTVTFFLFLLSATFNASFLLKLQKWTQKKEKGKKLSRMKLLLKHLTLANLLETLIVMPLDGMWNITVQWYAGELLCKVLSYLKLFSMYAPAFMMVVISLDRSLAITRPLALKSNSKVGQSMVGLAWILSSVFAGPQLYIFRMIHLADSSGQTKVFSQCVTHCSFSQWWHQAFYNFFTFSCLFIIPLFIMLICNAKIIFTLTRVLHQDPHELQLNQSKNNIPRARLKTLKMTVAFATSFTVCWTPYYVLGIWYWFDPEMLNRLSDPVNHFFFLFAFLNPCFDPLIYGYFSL
From the text: By using homogenous time-resolved fluorescence resonance energy transfer (HTRF), the generation of one component of the GnRH-R signalling cascade can be measured. After stimulation of CHO cells stably expressing human GnRH receptor (established by Prof. Thomas Gudermann, currently University of Marburg, Germany; supplied as frozen cell aliquots by Cell Culture Services, Hamburg, Germany) with the EC80 of the GnRH agonist buserelin, Gq protein-coupled receptor signalling cascade is activated resulting in PLC-dependent cleavage of PIP2 to Inositol-1,4,5-triphosphate (IP3) and Diacylglycerol. The second messenger IP3 is degraded intracellularly to myo-inositol. Inhibition of the final degradation step from Inositol-1-phosphate (IP1) to myo-inositol by addition of lithium chloride leads to accumulation of IP1 in the cells. In cell lysates, IP1 can be detected via an antibody-based HTRF detection technology, where IP1 can displace the FRET acceptor IP1-d2 from binding by Terbium-labelled anti-IP1 antibody as donor resulting in a signal decrease. Compounds were tested for their capability of inhibiting GnRH-R activation by buserelin. For all IP-One HTRF® assays reagents of Cisbio Bioassays (IP-One Tb Jumbo kit, #62IPAPEJ; Cisbio Bioassays, Bagnols sur Cèze Cedex, France) were used.
For the assay, frozen cell aliquots were thawed and a cell suspension (3.33x10^6 cells/ml) containing IP1-d2 (dilution 1:40) was prepared and incubated at 37°C. After 1 h 3 µl of the cell suspension were added to 50 nl of a 100-fold concentrated solution of the test compound in DMSO pre-dispensed in a well of a white low-volume 384-well microtiter plate (Greiner Bio-One, Frickenhausen, Germany). The mixture was incubated for 20 min at 22°C to allow for pre-binding of the test compound to the GnRH-R. The receptor signaling cascade was stimulated by addition of 2 µl buserelin or LHRH (at EC50 or EC80) in stimulation buffer (10 mM Hepes pH 7.4, 1 mM CaCl2, 0.5 mM MgCl2, 4.2 mM KCI, 146 mM NaCl, 5.5 mM α-D-Glucose, 0.05% BSA, 125 mM LiCl (final assay concentration 50 mM) in aqua dest.). Plates were incubated for 1 h at 37°C and 5% carbon dioxide before the cells were lysed by adding 3 µl Terbium-labelled anti-IP1 antibody (1:40) diluted in Conjugate & Lysis buffer as supplied with the kit. After an incubation for 1 h at 22°C to enable complete cell lysis and antibody binding to free IP1 or IP1-d2, plates were measured in an HTRF reader, e.g. a RUBYstar, PHERAstar (both BMG Labtechnologies, Offenburg, Germany) or a Viewlux (PerkinElmer LAS, Rodgau-Jügesheim, Germany). From the fluorescence emissions at 665 nm (FRET) and at 620 nm (background signal of Terbium-antibody), the ratio (emission at 665 nm divided by emission at 620 nm) was calculated and the data were normalized (reaction without test compound = 0% inhibition; all other assay components except agonist = 100% inhibition). On the same microtiter plate, compounds were tested at 10 different concentrations in the range of 20 µM to 1 nM (20 µM, 6.7 µM, 2.2 µM, 0.74 µM, 0.25 µM, 82 nM, 27 nM, 9.2 nM, 3.1 nM and 1 nM; dilution series prepared before the assay at the level of the 100-fold conc. stock solutions by serial 1:3 dilutions in 100% DMSO) in duplicate values for each concentration. By using an in-house software, the IC50 values were calculated by a 4 parameter fit. The data reveal that the compounds of the present invention have antagonist activities on the human GnRH receptor. Within the meaning of the present invention the antagonist activity is reflected by the ability of a compound of the invention to antagonize human GnRH receptor stimulation in IP-One HTRF® assay at least three times the standard deviation over the background level.

SMILES	IC50
O=C(NCc1ncccc1Cl)c1ccc2c(c1)C1(CCC(O)(C(F)(F)F)CC1)C(C1CC1)N2S(=O)(=O)c1ccc(F)cc1 (racemic) [Example 1, N-[(3-chloropyridin-2-yl)methyl]-2'-cyclopropyl-1'-[(4-fluorophenyl)sulfonyl]-4-hydroxy-4-(trifluoromethyl)-1',2'-dihydrospiro[cyclohexane-1,3'-indole]-5'-carboxamide]	0.354 µM
O=C1CCC2(CC1)c1cc(C(=O)NCc3ccccc3Cl)ccc1N(S(=O)(=O)c1ccc(F)cc1)C2C1CC1 (racemic) [Example 3, N-(2-chlorobenzyl)-2'-cyclopropyl-1'-[(4-fluorophenyl)sulfonyl]-4-oxo-1',2'-dihydrospiro[cyclohexane-1,3'-indole]-5'-carboxamide]	0.0468 µM
COC(=O)c1cccc(NC(=O)c2ccc3c(c2)C2(CCC(O)(C(F)(F)F)CC2)C(C2CC2)N3S(=O)(=O)c2ccc(F)cc2)c1 (racemic) [Example 30, methyl 3-[({2'-cyclopropyl-1'-[(4-fluorophenyl)sulfonyl]-4-hydroxy-4-(trifluoromethyl)-1',2'-dihydrospiro[cyclohexane-1,3'-indol]-5'-yl}carbonyl)amino] benzoate]	0.227 µM
O=C(NCc1ncccc1Cl)c1ccc2c(c1)C1(CCC(O)(C(F)(F)F)CC1)C(C1CC1)N2S(=O)(=O)c1ccc(F)cc1 (single isomer, unassigned) [Example 1-2]	0.135 µM
O=C1CCC2(CC1)c1cc(C(=O)NCc3ccccc3Cl)ccc1N(S(=O)(=O)c1ccc(F)cc1)C2C1CC1 (single isomer, unassigned) [Example 3-1]	0.0413 µM
O=C1CCC2(CC1)c1cc(C(=O)NCc3ccccc3Cl)ccc1N(S(=O)(=O)c1ccc(F)cc1)C2C1CC1 (single isomer, unassigned) [Example 3-2]	1.02 µM
COC(=O)c1cccc(NC(=O)c2ccc3c(c2)C2(CCC(O)(C(F)(F)F)CC2)C(C2CC2)N3S(=O)(=O)c2ccc(F)cc2)c1 (single isomer, unassigned) [Example 30-1]	0.142 µM
COC(=O)c1cccc(NC(=O)c2ccc3c(c2)C2(CCC(O)(C(F)(F)F)CC2)C(C2CC2)N3S(=O)(=O)c2ccc(F)cc2)c1 (single isomer, unassigned) [Example 30-2]	1.59 µM
O=C(Nc1ccon1)c1ccc2c(c1)C1(CCC(O)(C(F)(F)F)CC1)C(C1CC1)N2S(=O)(=O)c1ccc(F)cc1 (single isomer, unassigned) [Example 56-1]	0.215 µM
O=C(Nc1ccon1)c1ccc2c(c1)C1(CCC(O)(C(F)(F)F)CC1)C(C1CC1)N2S(=O)(=O)c1ccc(F)cc1 (single isomer, unassigned) [Example 56-2]	17.4 µM
O=C(NCc1ccccc1Cl)c1ccc2c(c1)C1(CCC(O)(C(F)(F)F)CC1)C(C1CC1)N2S(=O)(=O)c1ccc(F)cc1 (single isomer, unassigned) [Example 62-1]	0.101 µM
O=C(NCc1ccccc1Cl)c1ccc2c(c1)C1(CCC(O)(C(F)(F)F)CC1)C(C1CC1)N2S(=O)(=O)c1ccc(F)cc1 (single isomer, unassigned) [Example 62-2]	3.28 µM
O=C(NCc1ncccc1C(F)(F)F)c1ccc2c(c1)C1(CCC(O)(C(F)(F)F)CC1)C(C1CC1)N2S(=O)(=O)c1ccc(F)cc1 (single isomer, unassigned) [Example 65-2]	0.116 µM
O=C(NCc1ncccc1C(F)(F)F)c1ccc2c(c1)C1(CCC(O)(C(F)(F)F)CC1)C(C1CC1)N2S(=O)(=O)c1cccc(C(=O)N2CCC2)c1 (single isomer, unassigned) [Example 66-2]	0.612 µM
O=C(NCc1ccccc1Cl)c1ccc2c(c1)C1(CCC(O)CC1)C(C1CC1)N2S(=O)(=O)c1ccc(F)cc1 (centres unmarked) [Example 2, N-(2-chlorobenzyl)-2'-cyclopropyl-1'-[(4-fluorophenyl)sulfonyl]-4-hydroxy-1',2'-dihydrospiro[cyclohexane-1,3'-indole]-5'-carboxamide]	0.0607 µM
CC1(O)CCC2(CC1)c1cc(C(=O)NCc3ccccc3Cl)ccc1N(S(=O)(=O)c1ccc(F)cc1)C2C1CC1 (centres unmarked) [Example 4, N-(2-chlorobenzyl)-2'-cyclopropyl-1'-[(4-fluorophenyl)sulfonyl]-4-hydroxy-4-methyl-1',2'-dihydrospiro[cyclohexane-1,3'-indole]-5'-carboxamide]	0.0733 µM
O=C(NCc1ccccc1Cl)c1ccc2c(c1)C1(CCC(=NO)CC1)C(C1CC1)N2S(=O)(=O)c1ccc(F)cc1 (centres unmarked) [Example 5, N-(2-chlorobenzyl)-2'-cyclopropyl-1'-[(4-fluorophenyl)sulfonyl]-4-(hydroxyimino)-1',2'-dihydrospiro[cyclohexane-1,3'-indole]-5'-carboxamide]	0.0657 µM
O=C(NCc1ccccc1Cl)c1ccc2c(c1)C1(CCC(F)(F)CC1)C(C1CC1)N2S(=O)(=O)c1ccc(F)cc1 (centres unmarked) [Example 6, N-(2-chlorobenzyl)-2'-cyclopropyl-4,4-difluoro-1'-[(4-fluorophenyl)sulfonyl]-1',2'-dihydrospiro[cyclohexane-1,3'-indole]-5'-carboxamide]	0.489 µM
O=C(NCc1ncc(C(F)(F)F)cc1Cl)c1ccc2c(c1)C1(CCC(O)CC1)C(C1CC1)N2S(=O)(=O)c1ccc(F)cc1 (centres unmarked) [Example 7, N-{[3-chloro-5-(trifluoromethyl)pyridin-2-yl]methyl}-2'-cyclopropyl-1'-[(4-fluorophenyl)sulfonyl]-4-hydroxy-1',2'-dihydrospiro[cyclohexane-1,3'-indole]-5'-carboxamide]	0.0521 µM
O=C1CCC2(CC1)c1cc(C(=O)NCc3ncc(C(F)(F)F)cc3Cl)ccc1N(S(=O)(=O)c1ccc(F)cc1)C2C1CC1 (centres unmarked) [Example 8, N-{[3-chloro-5-(trifluoromethyl)pyridin-2-yl]methyl}-2'-cyclopropyl-1'-[(4-fluorophenyl)sulfonyl]-4-oxo-1',2'-dihydrospiro[cyclohexane-1,3'-indole]-5'-carboxamide]	0.0574 µM
COC(=O)c1cccc(S(=O)(=O)N2c3ccc(C(=O)NCc4ccccc4Cl)cc3C3(CCCCC3)C2C2CC2)c1 (centres unmarked) [Example 9, methyl 3-({5'-[(2-chlorobenzyl)carbamoyl]-2'-cyclopropylspiro[cyclohexane-1,3'-indol]-1'(2'H)-yl}sulfonyl)benzoate]	2.29 µM
O=C(O)c1cccc(S(=O)(=O)N2c3ccc(C(=O)NCc4ccccc4Cl)cc3C3(CCCCC3)C2C2CC2)c1 (centres unmarked) [Example 10, 3-({5'-[(2-chlorobenzyl)carbamoyl]-2'-cyclopropylspiro[cyclohexane-1,3'-indol]-1'(2'H)-yl}sulfonyl)benzoic acid]	0.805 µM
COC(=O)c1cccc(S(=O)(=O)N2c3ccc(C(=O)NCc4ncccc4Cl)cc3C3(CCCCC3)C2C2CC2)c1 (centres unmarked) [Example 11, methyl 3-{[5'-{[(3-chloropyridin-2-yl)methyl]carbamoyl}-2'-cyclopropylspiro[cyclohexane-1,3'-indol]-1'(2'H)-yl]sulfonyl}benzoate]	1.22 µM
